Data as given in US20220218725A1, “METHODS AND MATERIALS FOR TREATING CANCER” (Mayo Foundation for Medical Education and Research, priority 2019, published 2022).

System: JeKo-1 cells
Test: Cell viability, Annexin V/PI assay (also IC50 and combination index)
Type: cell-based
Procedure: To assess apoptosis and cellular proliferation, all cell lines were treated with CRM 1 inhibitors (concentration ranging from 0.05-2 μM) and salicylates at concentrations ranging from (0.001-10 mM) for 48 hours before analysis was performed. DMSO was used to substitute the drug in controls.
After 48 hours incubation, cells were washed with Annexin buffer solution and stained with both propidium iodide (PI) and FITC-Annexin V (Life Technologies), and assayed on a BD Accuri flow cytometer (BD Biosciences). Apoptosis results were analyzed with BD CellQuest software. For cell cycle analysis, Jeko-1 cell line was intubated with CRM 1 inhibitors (concentrations ranging from […]) and salicylates (concentration at 3 mM) and Ly-1 cell line was intubated with CRM 1 inhibitors (concentrations ranging from 0.1-2.0 μM) and salicylates (concentration at 0.5-5 mM) for 24 and 48 hours and then fixed with 95% cold ethanol and kept at 4 C° for 24 h and subsequently underwent cell cycle analysis after PI staining and analysis was performed using BD FACS caliber flow cytometer (BD Biosciences) and FlowJo software (Tree Star).
Cell lines were purchased from the cell line repositories ATCC (Manassas, Va.) or DSMZ (Braunschweig, Germany). These included MCL cell lines: JeKo-1, Mino; TCL cell lines: Karpas-299, SR-786; DLBCL cell lines: OCI-Ly1 (LY-1), OCI-Ly3 (LY-3), OCI-Ly19 (LY-19), SU-DHL-6 (DHL-6); MM cell lines: RPMI, U266, OPM2, Xgl, KMS2; ALL cell lines: CRL-1783; non-small cell lung cancer: NCI-H460, A549, HCC827; small cell lung cancer: H1048; sarcoma: Fuji, SW872. Cell lines were cultured according to instruction.
KPT-330 purchased from Selleckchem (cat no: S7252) was dissolved in DMSO while CS (Santa Cruz, Calif.S 2016-36-6), sodium salicylate (Sigma-Aldrich, cat no: S3007), acetyl salicylate (Sigma-Aldrich, cat no: CAS 50-78-2) was diluted in PBS. Ketorolac (Sigma-Aldrich, cat no: 1356665), Bortezomib (Selleckchem, cat no: S1013), gemcitabine (Sigma-Aldrich, cat no: G6423), Leptomycin-B (Sigma-Aldrich, cat no: L2913-2X) and KPT-185 (Selleckchem, cat no: S7125) were dissolved in DMSO. The concentration range of KPT-330 was 0.05-1.0 μM while CS was 1-3 mM were used for ex vivo treatment and incubation time ranged from 24 hours to 72 hours. For the PARP inhibitor assay, olaparib 10 μM (SelleckChem, cat no: AZD2281 Ku-0059436) was used.
The viability assessment for cell lines and primary patients samples were conducted with the Annexin V/PI method.
Jeko-1 and OCI-Ly1 cell lines were used to assess the IC50. Keeping CS at 3 mM, KPT-330 was titrated. Relative IC50 was calculated as described elsewhere (see, e.g., Sebaugh et al., Pharmaceutical statistics 10:128-134 (2011)). The combination index was calculated as described elsewhere (see, e.g., Chou et al., Cancer Res 70:440-446 (2010)).

## CC(C)[C@H](NC(=O)c1ccc2ccccc2n1)C(=O)N[C@@H](CC(=O)O)C(=O)COc1c(F)cccc1F [Q-VD-OPh]
JeKo-1, 48 hours, KPT-330 0.5 μM and CS 3 mM
  effect of pan-caspase inhibitor on K+CS induced cell death: rescued cells from K+CS induced cell death

## O=C(c1cc(Cc2n[nH]c(=O)c3ccccc23)ccc1F)N1CCN(C(=O)C2CC2)CC1 [Olaparib, olaparib]
JeKo-1, olaparib 10 μM, KPT-330 0.5 μM, CS 3 mM, 48 h, AnnexinV/PI
  antitumor activity with PARP inhibitor: did not have any antitumor activity

## Cc1cn([C@H]2C[C@H](O)[C@@H](CO)O2)c(=O)[nH]c1=O [thymidine]
JeKo-1 in thymidine-free media, 0.5 μM KPT-330, 3 mM CS, 10 μM thymidine, 48 hours
  cell viability after K+CS treatment with exogenous thymidine: statistically significant increase in cell viability
